In series [1] the target is Multidrug resistance associated protein (Homo sapiens) (UniProt Q96QA9). In words: (§1) TP_TRANSPORTER: reporter gene activity in promoter constructs in HepG2 cells. It is filed as functional, cell-based.
Series [2] concerns the target ATP-binding cassette sub-family C member 2 (Homo sapiens, UniProt Q92887). The series is described as §1. The class given is functional, cell-based.

Chain of ATP-binding cassette sub-family C member 2 (Q92887 whole entry): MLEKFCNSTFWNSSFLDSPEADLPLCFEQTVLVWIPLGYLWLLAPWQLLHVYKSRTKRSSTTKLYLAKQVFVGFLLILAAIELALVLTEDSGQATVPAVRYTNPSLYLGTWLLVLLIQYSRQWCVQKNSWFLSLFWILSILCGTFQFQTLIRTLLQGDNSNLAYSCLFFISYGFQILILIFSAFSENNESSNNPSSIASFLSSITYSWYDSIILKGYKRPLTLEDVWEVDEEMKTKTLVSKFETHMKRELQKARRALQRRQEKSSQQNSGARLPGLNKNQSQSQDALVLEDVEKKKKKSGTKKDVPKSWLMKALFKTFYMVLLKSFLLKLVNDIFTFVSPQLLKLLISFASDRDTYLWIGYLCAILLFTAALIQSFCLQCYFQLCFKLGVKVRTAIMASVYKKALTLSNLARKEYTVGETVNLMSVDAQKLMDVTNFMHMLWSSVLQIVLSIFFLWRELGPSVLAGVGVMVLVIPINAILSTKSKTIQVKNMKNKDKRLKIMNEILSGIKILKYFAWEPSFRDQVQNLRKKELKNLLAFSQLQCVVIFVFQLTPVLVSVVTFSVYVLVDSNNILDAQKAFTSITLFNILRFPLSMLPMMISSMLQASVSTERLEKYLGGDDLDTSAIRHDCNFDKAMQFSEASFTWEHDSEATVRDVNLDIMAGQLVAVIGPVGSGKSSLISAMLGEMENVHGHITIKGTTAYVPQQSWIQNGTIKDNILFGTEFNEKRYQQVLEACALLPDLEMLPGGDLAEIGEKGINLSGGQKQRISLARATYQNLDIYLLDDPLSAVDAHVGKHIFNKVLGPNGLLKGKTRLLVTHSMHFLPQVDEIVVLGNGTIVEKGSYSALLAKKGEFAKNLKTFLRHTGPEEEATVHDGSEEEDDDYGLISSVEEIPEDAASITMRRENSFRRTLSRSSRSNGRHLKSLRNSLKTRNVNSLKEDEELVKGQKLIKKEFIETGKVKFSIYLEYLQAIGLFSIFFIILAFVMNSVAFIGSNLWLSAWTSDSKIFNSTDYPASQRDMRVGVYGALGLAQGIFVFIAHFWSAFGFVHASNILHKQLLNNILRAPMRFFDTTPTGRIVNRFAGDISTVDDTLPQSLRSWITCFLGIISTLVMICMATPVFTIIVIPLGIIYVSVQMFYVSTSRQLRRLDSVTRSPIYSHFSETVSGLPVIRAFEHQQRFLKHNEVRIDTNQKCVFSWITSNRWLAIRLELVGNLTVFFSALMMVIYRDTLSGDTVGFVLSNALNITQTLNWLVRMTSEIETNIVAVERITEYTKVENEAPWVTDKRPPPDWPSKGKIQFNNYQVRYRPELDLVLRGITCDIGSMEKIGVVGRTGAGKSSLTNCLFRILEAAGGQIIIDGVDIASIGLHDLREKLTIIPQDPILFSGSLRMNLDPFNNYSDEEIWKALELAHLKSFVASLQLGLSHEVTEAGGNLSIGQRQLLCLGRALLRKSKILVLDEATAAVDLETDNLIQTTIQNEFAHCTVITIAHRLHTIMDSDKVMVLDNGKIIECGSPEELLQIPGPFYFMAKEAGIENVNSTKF
Chain of Multidrug resistance associated protein (Homo sapiens) (Q96QA9 as listed by the source): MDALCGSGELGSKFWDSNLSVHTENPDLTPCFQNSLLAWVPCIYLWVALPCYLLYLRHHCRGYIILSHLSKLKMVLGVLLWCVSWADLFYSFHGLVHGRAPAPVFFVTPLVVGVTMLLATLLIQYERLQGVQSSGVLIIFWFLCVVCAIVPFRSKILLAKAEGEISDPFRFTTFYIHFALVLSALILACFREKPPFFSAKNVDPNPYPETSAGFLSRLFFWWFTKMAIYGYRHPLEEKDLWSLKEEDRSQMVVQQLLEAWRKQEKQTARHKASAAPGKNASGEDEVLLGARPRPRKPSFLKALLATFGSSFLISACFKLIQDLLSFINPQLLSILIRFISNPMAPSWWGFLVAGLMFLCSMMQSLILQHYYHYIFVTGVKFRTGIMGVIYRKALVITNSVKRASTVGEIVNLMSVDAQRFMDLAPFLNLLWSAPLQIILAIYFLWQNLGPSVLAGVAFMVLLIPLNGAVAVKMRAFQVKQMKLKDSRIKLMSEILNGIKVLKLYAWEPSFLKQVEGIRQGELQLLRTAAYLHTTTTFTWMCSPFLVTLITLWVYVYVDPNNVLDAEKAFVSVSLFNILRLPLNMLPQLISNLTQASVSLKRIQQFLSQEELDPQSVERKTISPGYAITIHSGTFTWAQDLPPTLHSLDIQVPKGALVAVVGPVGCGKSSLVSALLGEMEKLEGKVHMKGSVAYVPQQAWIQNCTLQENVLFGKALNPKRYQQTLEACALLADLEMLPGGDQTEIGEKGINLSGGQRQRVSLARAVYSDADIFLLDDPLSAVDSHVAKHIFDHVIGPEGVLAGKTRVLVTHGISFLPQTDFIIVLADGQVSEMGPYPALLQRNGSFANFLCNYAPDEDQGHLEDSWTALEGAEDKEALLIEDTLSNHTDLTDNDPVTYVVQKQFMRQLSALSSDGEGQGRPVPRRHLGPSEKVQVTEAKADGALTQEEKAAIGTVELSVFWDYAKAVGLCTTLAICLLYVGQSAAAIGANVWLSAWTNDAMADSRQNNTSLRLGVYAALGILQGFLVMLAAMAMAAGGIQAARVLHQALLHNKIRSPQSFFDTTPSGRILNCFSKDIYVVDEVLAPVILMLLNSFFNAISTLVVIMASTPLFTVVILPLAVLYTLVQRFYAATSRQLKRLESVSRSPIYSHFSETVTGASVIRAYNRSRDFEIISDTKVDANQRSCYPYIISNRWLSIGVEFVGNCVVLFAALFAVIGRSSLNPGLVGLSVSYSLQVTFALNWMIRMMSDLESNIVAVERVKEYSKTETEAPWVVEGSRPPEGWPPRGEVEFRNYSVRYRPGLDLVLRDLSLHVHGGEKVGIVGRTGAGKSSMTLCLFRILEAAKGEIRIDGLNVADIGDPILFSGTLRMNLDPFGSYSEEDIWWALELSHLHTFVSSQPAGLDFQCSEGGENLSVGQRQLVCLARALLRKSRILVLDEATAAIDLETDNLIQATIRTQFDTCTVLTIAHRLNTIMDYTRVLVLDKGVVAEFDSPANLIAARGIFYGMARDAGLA

Consider `COC(=O)Nc1nc2cc(C(=O)c3cccs3)ccc2[nH]1`, for which the Activity entry in series [1] is “inducer [+]”. With `COC(=O)Nc1nc2ccc(C(=O)c3cccs3)cc2[nH]1` [NOCODAZOLE], the Activity result in series [2] is “inducer [+]”.

Source of the values: ChEMBL document CHEMBL2074425, “Characterization of the 5'-flanking region of the human multidrug resistance protein 2 (MRP2) gene and its regulation in comparison withthe multidrug resistance protein 3 (MRP3) gene” (Eur J Biochem, 2000).
